pIC50: −log10 of the molar value. Entries after “also recorded” stand apart in the source; their conditions may differ.
How the values were obtained:
[1] = tested on: PBL stimulated with PHA; test: Cytotoxicity in human PBLs stimulated with PHA; format: cell-based; settings: 72 h, read-out: IC50 PBLPHA
Description: (§1) Human PBLs were obtained from healthy donors by separation on a Lymphoprep^TM (Serumwerk Bernburg AG) gradient and were used for the evaluation of the cytotoxic potential of compounds under study in normal human cells. Buffy coats were obtained from the Blood Transfusion Service, Azienda Ospedaliera of Padova and provided at this institution for research purposes without identifier. The samples were not obtained specifically for this study, and for this reason ethical approval was not required. Informed consent was obtained from blood donors according to Italian law no. 219 (21 October 2005). Data were treated by the Blood Transfusion Service according to Italian law on personal data management “Codice in materia di protezione dati personali” (Testo Unico D.L. Giugno 30, 2003 196).
(§2) After extensive washing with saline solution (BioConcept, Hank’s Buffered Saline Solution), quiescent PBLs were resuspended (1.0 × 10^6 cells/mL) in RPMI-1640 medium supplemented with 10% fetal bovine serum. Cytotoxicity evaluations were conducted also in cultures of proliferating PBLs, stimulated with […] PHA (Irvine Scientific). Both resting and proliferating lymphocytes were seeded in 96-well plates and maintained overnight at 37 °C in a humidified 5% CO2 incubator. Serial (5-fold) dilutions of the tested compounds were added, and viability was determined 72 h later by the resazurin viability assay as described above.

[2] = tested on: quiescent PBLs; test: Cytotoxicity in human PBLs, resting; format: cell-based; settings: PBL not stimulated with PHA; 72 h; read-out: IC50 PBLresting
Description: as §1, §2

[3] = tested on: HeLa cells; test: Cell cycle analysis (PI, flow cytometry); format: cell-based, human; settings: 50 nM, 24 h
Protocol: HeLa cells were seeded at 100,000 cells per well on 6-well tissue culture plates. After 24 h, cells were treated with different test compound concentrations or DMSO for another 24 h. Cells were then fixed and stained with propidium iodide (PI). The fluorescence intensity of 10,000 single-cell events was measured with a Beckman Coulter Cytomics FC500 instrument (Beckman Coulter Italia, Milano, Italy) and the data were analyzed with MultiCycle for Windows software from Phoenix Flow Systems (San Diego, CA, USA).

[4] = tested on: Zebrafish embryos; test: Acute toxicity assessment in zebrafish embryos; format: in vivo, Danio rerio; settings: for Results (toxicity evaluation) / % Alterations 24 h / % Lethality 24 h / % Alterations 48 h / % Lethality 48 h: 72 hpf embryos
Protocol: Zebrafish embryos at 72 h post fertilization (hpf) were selected for the acute toxicity assay since, at that time, morphogenesis and function of the primary organ systems are complete. Embryos at 72 hpf were assayed in a 12-well plate, 20 larvae/well for each experimental condition.
The zebrafish embryos were treated as described in the Biological Results and Discussion section using drug concentrations selected on the basis of in vitro experimental data. The drugs were added directly to the fish water from 10 mM stock solutions in DMSO of tested compounds. […] CA-4P was employed as the reference compound.
The experiment was carried out at a constant temperature (28.5 °C) in the dark, and at 24 and 48 h time points, zebrafish were subjected to visual observation and image acquisition under a stereomicroscope (Nikon SMZ745T; Nikon, Japan). The number of dead zebrafish embryos for each condition was recorded, and morphological defects were evaluated. The survival rate (%) after treatment was calculated.

[5] = tested on: HeLa cells; test: ROS production (H2DCFDA); format: cell-based, human; settings: 10, 50 or 100 nM; 24 h
Protocol: The mitochondrial potential was evaluated in HeLa cells by flow cytometry using the cell membrane permeable cationic dye 5,5′,6,6′-tetrachloro-1,1′,3,3′-tetraethyl-imidacarbocyanine iodide (JC-1) (Molecular Probes) as described previously. The production of ROS was measured in HeLa cells by flow cytometry using 2′,7′-dichlorodihydrofluorescein diacetate (H2DCFDA) (Molecular Probes) as described previously.

[6] = tested on: HeLa cells; test: Immunofluorescence labeling of microtubules; format: cell-based, human; settings: 10 nM, 24 h
Protocol: HeLa cells were seeded at 15,000 cells/well in a NuncTM Lab-Tek 8-well Chamber SlideTM System (Thermo Fisher Scientific) and incubated under cell culture conditions for 24 h. The cells were treated with various concentrations of compounds or solvent (DMSO as control) and incubated for another 24 h.
After the pharmacological treatment, cells were rinsed with PBS and fixed with 200 μL of 4% paraformaldehyde in PBS for 15 min at room temperature. Cells were then washed twice with PBS 1X before proceeding with permeabilization and protein saturation using a blocking buffer containing 3% bovine serum albumin and 0.1% Triton X-100. Cells were maintained in the blocking buffer for 30 min at room temperature before performing immunostaining of microtubules. Cells were incubated with a murine monoclonal anti-β tubulin antibody (Sigma-Aldrich, Milano, Italy) overnight at 4 °C.
After three washes with PBS 1X, cells were incubated for 1 h at room temperature in the dark with a secondary antibody conjugated to Alexa FluorTM 488 (Invitrogen, Thermo Fisher Scientific, Waltham, MA, USA)). […]
Alterations in the microtubule cytoskeleton were documented by fluorescence microscopy using a Zeiss LSM 800 with Airyscan Confocal Spectral microscope (100× magnification) (New York, NY, USA). […]

## Cc1cc(Nc2ccc(F)cc2)n2nc(NCCCc3ccccc3)nc2n1 [Compound 8q]
[1]
  pIC50: < 5.00
[2]
  pIC50: < 5.00
[3]
  cells arrested in G2/M: 80%
[4]; 100 nM and 1 μM, 24 and 48 h
  death, morphologic changes, developmental abnormalities: no death and no morphologic changes or developmental abnormalities; also recorded: No abnormal phenotypes or developmental defects were seen
[4]; 100 nM
  Results (toxicity evaluation): Not toxic
  % Alterations 24 h: 0%
  % Lethality 24 h: 0%
  % Alterations 48 h: 0%
  % Lethality 48 h: 0%
[4]; 1 μM
  Results (toxicity evaluation): Not toxic
  % Alterations 24 h: 0%
  % Lethality 24 h: 0%
  % Alterations 48 h: 0%
  % Lethality 48 h: 0%
[5]
  ROS production: significantly increased ROS production in a dose-dependent manner
[6]
  microtubule network organization: microtubules were disorganized, and the cells developed a spherical morphology
